US12552766B2, “Pesticidally active azole amide compounds” (SYNGENTA CROP PROTECTION AG, priority 2019, dated 2026)

What was measured:
Format in all cases: in vivo
[1] = tested on: Plutella xylostella (Diamond Back Moth); assay: Example B5: Plutella xylostella, artificial diet, 24-well; settings: 192 h, application rate of 200 ppm, eggs, 8 days after infestation, read-out: control in at least one of the two categories (mortality or growth inhibition)
Experimental: 24-well microtiter plates with artificial diet were treated with aqueous test solutions prepared from 10′000 ppm DMSO stock solutions by pipetting. After drying, Plutella eggs were pipetted through a plastic stencil onto a gel blotting paper and the plate was closed with it. The samples were assessed for mortality and growth inhibition in comparison to untreated samples 8 days after infestation.

[2] = tested on: Diabrotica Balteata (Corn Root Worm); assay: Example B1: Diabrotica balteata, spray on maize sprouts; settings: 96 h, application rate of 200 ppm, L2 larvae, 4 days after infestation, read-out: control in at least one of the two categories (mortality or growth inhibition)
Procedure, shortened: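 Spray test: maize sprouts on agar, aqueous dilutions of 10′000 ppm DMSO stock; after drying, 6–10 L2 larvae/well. Read-out at 4 d post-infestation: mortality and growth inhibition vs untreated.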

[3] = tested on: Spodoptera littoralis (Egyptian Cotton Leaf Worm); assay: Example B9: Spodoptera littoralis, spray on cotton leaf discs; settings: foliar, 72 h, application rate of 200 ppm, L1 larvae, 3 days after infestation, read-out: control in at least one of the three categories (mortality, anti-feedant effect, or growth inhibition)
Procedure, shortened: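 Spray application onto agar-supported cotton leaf discs used aqueous solutions derived from 10′000 ppm DMSO stocks. Once dry, discs were infested with five L1 larvae and evaluated after 3 days for mortality, anti-feeding and growth inhibition relative to untreated controls.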

[4] = tested on: Chilo suppressalis (Striped Rice Stemborer); assay: Example B4: Chilo suppressalis, artificial diet; settings: 144 h, application rate of 200 ppm, L2 larvae, 6 days after infestation, read-out: control in at least one of the three categories (mortality, anti-feedant effect, or growth inhibition)
Procedure, shortened: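 Artificial diet in wells was treated with aqueous test solutions diluted from 10'000 ppm DMSO stocks, dried, then infested with 6-8 L2 larvae per well. Mortality, anti-feeding effect and growth inhibition were scored against untreated samples 6 days after infestation; control means any category exceeds the untreated sample.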

[5] = tested on: Euschistus heros (Neotropical Brown Stink Bug); assay: Example B2: Euschistus heros, spray on soybean leaves; settings: 120 h, application rate of 200 ppm, N2 nymphs, 5 days after infestation, read-out: control in at least one of the two categories (mortality or growth inhibition)
Experimental: Soybean leaves on agar in 24-well microtiter plates were sprayed with aqueous test solutions prepared from 10′000 ppm DMSO stock solutions. After drying the leaves were infested with N2 nymphs. The samples were assessed for mortality and growth inhibition in comparison to untreated samples 5 days after infestation.

[6] = tested on: Plutella xylostella (Diamondback Moth); assay: Example B13: Plutella xylostella, artificial diet, 96-well; settings: 216 h, application rate of 500 ppm, eggs/L1 larvae, 9 days after infestation
Experimental: 96-well microtiter plates containing artificial diet were treated with aqueous test solutions, prepared from 10′000 ppm DMSO stock solutions, by a liquid handling robot. After drying, eggs (˜30 per well) were infested onto a netted lid which was suspended above the diet. The eggs hatch and L1 larvae move down to the diet. The samples were assessed for mortality 9 days after infestation.

CC(NC(=O)c1cc(Cl)cc(C(F)(F)F)c1)c1nc(Br)nn1-c1ccc(OC(F)F)cn1 (stereo not shown) [Compound P26, N-[1-[5-bromo-2-[5-(difluoromethoxy)-2-pyridyl]-1,2,4-triazol-3-yl]ethyl]-3-chloro-5-(trifluoromethyl) benzamide]
≥ 80%: percent control (mortality or growth inhibition) at 200 ppm [1] | percent control (mortality or growth inhibition) at 200 ppm [2] | percent control (mortality, anti-feedant effect or growth inhibition) at 200 ppm [3] | percent control (mortality, anti-feedant effect or growth inhibition) at 200 ppm [4] | percent control (mortality or growth inhibition) at 200 ppm [5]

CC(NC(=O)c1cc(Cl)cc(C(F)(F)F)c1)c1nc(Br)nn1-c1ncc(OC(F)F)cn1 (stereo not shown) [Compound P29, N-[1-[5-bromo-2-[5-(difluoromethoxy)pyrimidin-2-yl]-1,2,4-triazol-3-yl]ethyl]-3-chloro-5-(trifluoromethyl) benzamide]
≥ 80%: percent control (mortality or growth inhibition) at 200 ppm [1] | mortality at 500 ppm [6] | percent control (mortality or growth inhibition) at 200 ppm [2] | percent control (mortality, anti-feedant effect or growth inhibition) at 200 ppm [3] | percent control (mortality, anti-feedant effect or growth inhibition) at 200 ppm [4]

CC(NC(=O)c1cc(Br)cc(C(F)(F)F)c1)c1nc(Br)nn1-c1ccc(C#N)cn1 (stereo not shown) [Compound P30, 3-bromo-N-[1-[5-bromo-2-(5-cyano-2-pyridyl)-1,2,4-triazol-3-yl]ethyl]-5-(trifluoromethyl) benzamide]
≥ 80%: percent control (mortality or growth inhibition) at 200 ppm [1] | mortality at 500 ppm [6] | percent control (mortality or growth inhibition) at 200 ppm [2] | percent control (mortality, anti-feedant effect or growth inhibition) at 200 ppm [3] | percent control (mortality, anti-feedant effect or growth inhibition) at 200 ppm [4]

CC(NC(=O)c1cc(Cl)cc(C(F)(F)F)c1)c1nc(Br)nn1-c1ccc(C#N)cn1 (stereo not shown) [Compound P31, N-[1-[5-bromo-2-(5-cyano-2-pyridyl)-1,2,4-triazol-3-yl]ethyl]-3-chloro-5-(trifluoromethyl) benzamide]
≥ 80%: percent control (mortality or growth inhibition) at 200 ppm [1] | mortality at 500 ppm [6] | percent control (mortality or growth inhibition) at 200 ppm [2] | percent control (mortality, anti-feedant effect or growth inhibition) at 200 ppm [3] | percent control (mortality, anti-feedant effect or growth inhibition) at 200 ppm [4]

CC(NC(=O)c1cc(C(F)F)cc(C(F)(F)F)c1)c1nc(Br)nn1-c1ncc(OCC(F)F)cn1 (stereo not shown) [Compound P40, N-[1-[5-bromo-2-[5-(2,2-difluoroethoxy)pyrimidin-2-yl]-1,2,4-triazol-3-yl]ethyl]-3-(difluoromethyl)-5-(trifluoromethyl) benzamide]
≥ 80%: percent control (mortality or growth inhibition) at 200 ppm [1] | mortality at 500 ppm [6] | percent control (mortality or growth inhibition) at 200 ppm [2] | percent control (mortality, anti-feedant effect or growth inhibition) at 200 ppm [3] | percent control (mortality, anti-feedant effect or growth inhibition) at 200 ppm [4] | percent control (mortality or growth inhibition) at 200 ppm [5]

CC(NC(=O)c1cc(Br)cc(C(F)(F)F)c1)c1nc(Br)nn1-c1ncc(OCC(F)(F)F)cn1 (stereo not shown) [Compound P41, 3-bromo-N-[1-[5-bromo-2-[5-(2,2,2-trifluoroethoxy)pyrimidin-2-yl]-1,2,4-triazol-3-yl]ethyl]-5-(trifluoromethyl) benzamide]
≥ 80%: percent control (mortality or growth inhibition) at 200 ppm [1] | mortality at 500 ppm [6] | percent control (mortality or growth inhibition) at 200 ppm [2] | percent control (mortality, anti-feedant effect or growth inhibition) at 200 ppm [3] | percent control (mortality, anti-feedant effect or growth inhibition) at 200 ppm [4]

CC(NC(=O)c1cc(C(F)F)cc(C(F)(F)F)c1)c1nc(Br)nn1-c1ncc(OCC(F)(F)F)cn1 (stereo not shown) [Compound P42, N-[1-[5-bromo-2-[5-(2,2,2-trifluoroethoxy)pyrimidin-2-yl]-1,2,4-triazol-3-yl]ethyl]-3-(difluoromethyl)-5-(trifluoromethyl) benzamide]
≥ 80%: percent control (mortality or growth inhibition) at 200 ppm [1] | mortality at 500 ppm [6] | percent control (mortality or growth inhibition) at 200 ppm [2] | percent control (mortality, anti-feedant effect or growth inhibition) at 200 ppm [3] | percent control (mortality, anti-feedant effect or growth inhibition) at 200 ppm [4]

CC(NC(=O)c1cc(C(F)(F)F)cc(C(F)(F)F)c1)c1nc(Br)nn1-c1ncc(OCC(F)(F)F)cn1 (stereo not shown) [Compound P44, N-[1-[5-bromo-2-[5-(2,2,2-trifluoroethoxy)pyrimidin-2-yl]-1,2,4-triazol-3-yl]ethyl]-3,5-bis(trifluoromethyl) benzamide]
≥ 80%: percent control (mortality or growth inhibition) at 200 ppm [1] | mortality at 500 ppm [6] | percent control (mortality or growth inhibition) at 200 ppm [2] | percent control (mortality, anti-feedant effect or growth inhibition) at 200 ppm [3] | percent control (mortality, anti-feedant effect or growth inhibition) at 200 ppm [4]

CC(NC(=O)c1cc(OC(F)F)cc(C(F)(F)F)c1)c1nc(Br)nn1-c1ncc(OCC(F)(F)F)cn1 (stereo not shown) [Compound P45]
≥ 80%: percent control (mortality or growth inhibition) at 200 ppm [1] | mortality at 500 ppm [6] | percent control (mortality or growth inhibition) at 200 ppm [2] | percent control (mortality, anti-feedant effect or growth inhibition) at 200 ppm [3] | percent control (mortality, anti-feedant effect or growth inhibition) at 200 ppm [4]

CC(NC(=O)c1cc(OCC(F)(F)F)cc(C(F)(F)F)c1)c1nc(Br)nn1-c1ncc(OCC(F)(F)F)cn1 (stereo not shown) [Compound P46, N-[1-[5-bromo-2-[5-(2,2,2-trifluoroethoxy)pyrimidin-2-yl]-1,2,4-triazol-3-yl]ethyl]-3-(2,2,2-trifluoroethoxy)-5-(trifluoromethyl) benzamide]
≥ 80%: percent control (mortality or growth inhibition) at 200 ppm [1] | mortality at 500 ppm [6] | percent control (mortality or growth inhibition) at 200 ppm [2] | percent control (mortality, anti-feedant effect or growth inhibition) at 200 ppm [3] | percent control (mortality, anti-feedant effect or growth inhibition) at 200 ppm [4]

CC(NC(=O)c1cc(Cl)cc(C(F)(F)F)c1)c1nc(Br)nn1-c1ccc(OCC(F)F)cn1 (stereo not shown) [Compound P49, N-[1-[5-bromo-2-[5-(2,2-difluoroethoxy)-2-pyridyl]-1,2,4-triazol-3-yl]ethyl]-3-chloro-5-(trifluoromethyl) benzamide]
≥ 80%: percent control (mortality or growth inhibition) at 200 ppm [1] | mortality at 500 ppm [6] | percent control (mortality or growth inhibition) at 200 ppm [2] | percent control (mortality, anti-feedant effect or growth inhibition) at 200 ppm [3] | percent control (mortality, anti-feedant effect or growth inhibition) at 200 ppm [4]

CC(NC(=O)c1cc(C(F)F)cc(C(F)(F)F)c1)c1nc(Br)nn1-c1ccc(OCC(F)F)cn1 (stereo not shown) [Compound P52, N-[1-[5-bromo-2-[5-(2,2-difluoroethoxy)-2-pyridyl]-1,2,4-triazol-3-yl]ethyl]-3-(difluoromethyl)-5-(trifluoromethyl) benzamide]
≥ 80%: percent control (mortality or growth inhibition) at 200 ppm [1] | mortality at 500 ppm [6] | percent control (mortality or growth inhibition) at 200 ppm [2] | percent control (mortality, anti-feedant effect or growth inhibition) at 200 ppm [3] | percent control (mortality, anti-feedant effect or growth inhibition) at 200 ppm [4] | percent control (mortality or growth inhibition) at 200 ppm [5]

CC(=O)c1nc(C(C)NC(=O)c2cc(C(F)(F)F)cc(C(F)(F)F)c2)n(-c2ccc(C#N)cn2)n1 (stereo not shown) [Compound P57, N-[1-[5-acetyl-2-(5-cyano-2-pyridyl)-1,2,4-triazol-3-yl]ethyl]-3,5-bis(trifluoromethyl) benzamide]
≥ 80%: percent control (mortality or growth inhibition) at 200 ppm [1] | mortality at 500 ppm [6] | percent control (mortality or growth inhibition) at 200 ppm [2] | percent control (mortality, anti-feedant effect or growth inhibition) at 200 ppm [3] | percent control (mortality, anti-feedant effect or growth inhibition) at 200 ppm [4]
